# Measured values published in paper PMC10762035, “Molecular basis of human trace amine-associated receptor 1 activation” (Nature Communications, 2024).
# Positions count from the first letter of the chain named. Values joined by “and” are separate entries in the source; they are usually repeats but may differ in a detail not shown here. Equal values may be shown once. Read-outs that look alike come from different tables or passages of the source.
# Legend:
# Type in all cases: cell-based
# hTA1 F195T = target: T1, hTA1 F195T (Homo sapiens, UniProt Q96RJ0, F195T); assay: GloSensor cAMP accumulation assay, F195T mutant;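 also: cells transiently co-expressing HA-FLAG-tagged hTA1 and the GloSensor cAMP biosensor, luminescence read 30 min after agonist addition at room temperature, concentration-response fitted by nonlinear regression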
# T1 construct: expressed in transfected cells; host or cells: HEK293T
# T1 sequence (Q96RJ0 1-339 F195T): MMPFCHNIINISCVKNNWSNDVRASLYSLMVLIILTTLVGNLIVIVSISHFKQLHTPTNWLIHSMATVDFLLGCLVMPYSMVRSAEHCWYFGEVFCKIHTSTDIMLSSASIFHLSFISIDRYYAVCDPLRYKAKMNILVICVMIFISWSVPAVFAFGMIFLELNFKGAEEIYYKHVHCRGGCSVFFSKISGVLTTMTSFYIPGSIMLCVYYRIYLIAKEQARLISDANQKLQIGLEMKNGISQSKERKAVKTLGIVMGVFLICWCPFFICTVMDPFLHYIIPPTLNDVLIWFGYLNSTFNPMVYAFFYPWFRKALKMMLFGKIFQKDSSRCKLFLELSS
# hTA1 C96S = target: T2, hTA1 C96S (Homo sapiens, UniProt Q96RJ0, C96S); assay: GloSensor cAMP accumulation assay, C96S mutant; settings: log[Compound]
# T2 construct: expressed in transfected cells; host or cells: HEK293T
# T2 sequence (Q96RJ0 1-339 C96S): T1 sequence (Q96RJ0 1-339 F195T) with C96S, T195F
# hTA1 C88/178S = target: T3, hTA1 C88/178S (Homo sapiens, UniProt Q96RJ0, C178S/C88S); assay: GloSensor cAMP accumulation assay, C88S/C178S double mutant; settings: for Normalized Luminescence Counts (N=2): log[Compound], single replicate values
# T3 construct: expressed in transfected cells; host or cells: HEK293T
# T3 sequence (Q96RJ0 1-339 C88S/C178S): T1 sequence (Q96RJ0 1-339 F195T) with C88S, C178S, T195F
# hTA1 I290N = target: T4, hTA1 I290N (Homo sapiens, UniProt Q96RJ0, I290N); assay: GloSensor cAMP accumulation assay, I290N mutant;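 also: cells transiently co-expressing hTA1 and the GloSensor cAMP biosensor, luminescence read 30 min after compound addition at room temperature, efficacy scaled to the maximal β-PEA response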
# T4 construct: expressed in transfected cells; host or cells: HEK293T
# T4 sequence (Q96RJ0 1-339 I290N): T1 sequence (Q96RJ0 1-339 F195T) with T195F, I290N
# hTA1 T271A = target: T5, hTA1 T271A (Homo sapiens, UniProt Q96RJ0, T271A); assay: GloSensor cAMP accumulation assay, T271A mutant
# T5 construct: expressed in transfected cells; host or cells: HEK293T
# T5 sequence (Q96RJ0 1-339 T271A): T1 sequence (Q96RJ0 1-339 F195T) with T195F, T271A
# [1] = C88S, C178S, each row is one independent experiment, 3 replicates
structure (smiles),measurement,setting,value
CCc1[nH]nc(C(=O)Nc2ccc([C@H]3CNCCO3)cc2)c1C [ralmitaront],"ΔpEC50 values (each mutant value - WT average), Mean","hTA1 F195T; F195T mutant minus WT average, Figure 5B",0.04071 and 0.07112
same,"Emax values, Mean","hTA1 F195T; F195T mutant, Figure 5B, β-PEA = 100, each row one independent experiment (3 replicates)",86.6537
same,Emax,"hTA1 F195T; F195T mutant, Figure 5B, β-PEA = 100, each row one independent experiment (3 replicates), read-out: Emax values, Mean",67.7%
same,Emax,"hTA1 F195T; F195T, n=2, read-out: Span ± SEM (Emax normalized to β-PEA)",77.2 ± 9.48%
same,Normalized Luminescence Counts,"hTA1 C96S; C96S, M = -5, single replicates (N=2)",1.4045 and -2.55 and -5.186 and -2.698 and 26.3511 and -6.571
same,Normalized Luminescence Counts,"hTA1 C96S; C96S, M = -5.522, single replicates (N=2)",-3.209 and -4.527 and -5.845 and -4.6346 and 8.922 and -0.7614
same,Normalized Luminescence Counts,"hTA1 C96S; C96S, M = -6, single replicates (N=2)",-3.209 and -2.55 and -5.186 and 8.922 and 1.175 and 18.6047
same,Normalized Luminescence Counts,"hTA1 C96S; C96S, M = -6.522, single replicates (N=2)",-5.186 (2×) and -3.209 and -6.571 and -12.381 and 39.9073
same,Normalized Luminescence Counts,"hTA1 C96S; C96S, M = -7, single replicates (N=2)",-5.845 and -1.232 and -3.868 and 3.112 and -12.381 and 8.922
same,Normalized Luminescence Counts,"hTA1 C96S; C96S, M = -7.522, single replicates (N=2)",-5.845 and -2.55 and -6.504 and 10.8582 (2×) and -6.571
same,Normalized Luminescence Counts,"hTA1 C96S; C96S, M = -8, single replicates (N=2)",-1.232 and -0.5726 and -2.55 and 20.5413 and -0.7614 and 37.9707
same,Normalized Luminescence Counts,"hTA1 C96S; C96S, M = -8.522, single replicates (N=2)",-1.891 (2×) and -3.209 and -0.7614 (2×) and 14.7315
same,Normalized Luminescence Counts,"hTA1 C96S; C96S, M = -9, single replicates (N=2)",-3.209 and -0.5726 and -2.55 and 6.985 and 8.922 and 5.048
same,Normalized Luminescence Counts,"hTA1 C96S; C96S, M = -9.522, single replicates (N=2)",-3.209 and -3.868 and -1.232 and 24.4145 and 3.112 and -8.508
same,Normalized Luminescence Counts,"hTA1 C96S; C96S, M = -10, single replicates (N=2)",-3.868 and -0.5726 and -1.232 and -0.7614 and -16.2542 (2×)
same,Normalized Luminescence Counts,"hTA1 C96S; C96S, M = -10.522, single replicates (N=2)",-2.55 (2×) and -1.232 and -6.571 and -22.0641 and -10.4444
same,Normalized Luminescence Counts,"hTA1 C96S; C96S, M = -11, single replicates (N=2)",0.7455 and 2.064 and -1.232 and 20.5413 and -12.381 and -10.4444
same,Normalized Luminescence Counts,"hTA1 C96S; C96S, M = -11.522, single replicates (N=2)",0.7455 and 3.382 and 1.4045 and 16.6681
same,Normalized Luminescence Counts,"hTA1 C96S; M = -11.522, single replicates, mutant block above C178S",-0.2239 and -0.1784 and -0.4742 and 3.153 and 1.07 and 2.833
same,Normalized Luminescence Counts,"hTA1 C96S; M = -12, single replicates, mutant block above C178S",-0.6336 and -0.2466 and -0.7474 and 2.192 and 1.657 and 3.26
same,Normalized Luminescence Counts,"hTA1 C96S; M = -12.522, single replicates, mutant block above C178S",-0.7701 (2×) and -0.4515 and 1.764 and 0.7492 and 1.497
same,"ΔEmax values (each mutant value - WT average), Mean",hTA1 C88/178S; [1],18.4827 and 32.9242
same,"ΔpEC50 values (each mutant value - WT average), Mean",hTA1 C88/178S; [1],-0.118 and 0.09825
same,Normalized Luminescence Counts (N=2),"hTA1 C88/178S; C88S, C178S, M = -5",55.2389 and 58.8007 and 61.0622 and 66.9199 and 93.0497 and 63.144
same,Normalized Luminescence Counts (N=2),"hTA1 C88/178S; C88S, C178S, M = -5.522",59.988 and 60.3272 and 50.3202 and 55.743 and 72.6594 and 83.3832
same,Normalized Luminescence Counts (N=2),"hTA1 C88/178S; C88S, C178S, M = -6",50.4332 and 47.6629 and 57.5569 and 67.8262 and 71.7532 and 58.9149
same,Normalized Luminescence Counts (N=2),"hTA1 C88/178S; C88S, C178S, M = -6.522",36.7513 and 35.5075 and 46.8149 and 59.519 and 56.6493 and 50.3056
same,Normalized Luminescence Counts (N=2),"hTA1 C88/178S; C88S, C178S, M = -7",22.2779 and 25.1613 and 25.3874 and 33.9934 and 41.0922 and 21.3061
same,Normalized Luminescence Counts (N=2),"hTA1 C88/178S; C88S, C178S, M = -7.522",14.9281 and 10.2921 and 11.3663 and 21.004 and 25.2331 and 32.0299
same,Normalized Luminescence Counts (N=2),"hTA1 C88/178S; C88S, C178S, M = -8",4.13 and 3.564 and 4.525 and 7.562 and 10.4313 and 11.0354
same,Normalized Luminescence Counts (N=2),"hTA1 C88/178S; C88S, C178S, M = -8.522",1.1331 and 2.8292 and 0.7939 and 5.598 and 0.6137 and 2.8793
same,Normalized Luminescence Counts (N=2),"hTA1 C88/178S; C88S, C178S, M = -9",0.3981 and 0.4547 and 0.9635 and -0.2925 and -0.1415 and 0.7648
same,Normalized Luminescence Counts (N=2),"hTA1 C88/178S; C88S, C178S, M = -9.522",-0.2803 and 1.19 and 0.172 and -1.501 and -1.35 and -2.105
same,Normalized Luminescence Counts (N=2),"hTA1 C88/178S; C88S, C178S, M = -10",0.0589 and 1.359 and 0.002362 and -0.8967 and -0.2925 and -1.35
same,Normalized Luminescence Counts (N=2),"hTA1 C88/178S; C88S, C178S, M = -10.522",1.077 and 0.1154 and 0.002362 and -1.501 and -1.199 and -1.048
same,Normalized Luminescence Counts (N=2),"hTA1 C88/178S; C88S, C178S, M = -11",-0.2238 and 0.172 and 0.7373 and -1.35 and -0.1415 and -1.048
same,Normalized Luminescence Counts (N=2),"hTA1 C88/178S; C88S, C178S, M = -11.522",0.0589 and 0.7373 and 0.5112 and -2.105 and 0.7648 and -0.8967
same,Normalized Luminescence Counts (N=2),"hTA1 C88/178S; C88S, C178S, M = -12",0.5112 and 0.7939 and 5.317 and -0.4436 and -0.5946 and -1.048
same,Normalized Luminescence Counts (N=2),"hTA1 C88/178S; C88S, C178S, M = -12.522",0.7373 (2×) and 1.416 and -1.199 and -0.7456 and -2.105
same,"Emax values, Mean","hTA1 C88/178S; C88S, C178S, normalized (β-PEA = 100), each row is one independent experiment, 3 replicates",58.5968 and 73.0383
same,Emax,hTA1 C88/178S; read-out: Span ± SEM (Emax normalized to β-PEA),65.8 ± 7.22%
same,Emax,"hTA1 I290N; I290N, n=2, read-out: Span ± SEM (Emax normalized to β-PEA)",43.6 ± 5.35%
same,"cAMP accumulation response, single replicate values (source data, Supplementary Figure 5)","hTA1 I290N; hTA1 I290N (N=2), log[Compound], M = -5",44.9736 and 36.855 and 39.1073 and 50.4588
same,"Emax values, Mean","hTA1 I290N; hTA1 I290N mutant, β-PEA set to 100, each grid row a separate experiment, 3 replicates",38.2871
same,Emax,"hTA1 I290N; hTA1 I290N mutant, β-PEA set to 100, each grid row a separate experiment, 3 replicates, read-out: Emax values (Mean)",49%
same,"ΔpEC50 values (each mutant value - WT average), Mean","hTA1 T271A; T271A mutant minus WT average, Figure 5B",-0.01384
same,"Emax values, Mean","hTA1 T271A; T271A mutant, Figure 5B, β-PEA = 100, each row one independent experiment (3 replicates)",56.995
same,Emax,"hTA1 T271A; T271A mutant, Figure 5B, β-PEA = 100, each row one independent experiment (3 replicates), read-out: Emax values, Mean",65.2%
same,Emax,"hTA1 T271A; T271A, n=2, read-out: Span ± SEM (Emax normalized to β-PEA)",61.1 ± 4.08%
